Assay results from PubChem BioAssay AID1745844 (Carcinogenic Potency Database (CPDB), 2022).

System: rodent lifetime carcinogenesis bioassay, tumor incidence TD50
Test: carcinogenic potency in animals, long-term in vivo studies, CPDB compilation (AID 1745844)
Details: in feed, study length 104 weeks

For `COc1ccccc1[N+](=O)[O-]`, the TD50 (mouse, strain B6C3F1, females, site: all sites, lesion: malignant lymphoma, histiocytic type + malignant lymphoma, mixed type + malignant lymphoma, lymphocytic type + malignant lymph, dosed 103 weeks) was 153 mg/kg/day, the TD50 (mouse, strain B6C3F1, females, site: any site (literature study), lesion: several types, types named in the paper, dosed 103 weeks) was 350 mg/kg/day and the TD50 (mouse, strain B6C3F1, females, site: liver, lesion: hepatocellular adenoma + hepatoblastoma + hepatocellular carcinoma, dosed 103 weeks) was 194 mg/kg/day. The TD50 (mouse, strain B6C3F1, females, site: liver, lesion: hepatocellular adenoma + hepatocellular carcinoma, dosed 103 weeks) was 194 mg/kg/day, the TD50 (mouse, strain B6C3F1, females, site: liver, lesion: hepatocellular adenoma, dosed 103 weeks) was 179 mg/kg/day and the TD50 (mouse, strain B6C3F1, males, site: any site (literature study), lesion: several types, types named in the paper, dosed 103 weeks) was 43500 mg/kg/day. The TD50 (mouse, strain B6C3F1, males, site: liver, lesion: hepatoblastoma + hepatocellular carcinoma, dosed 103 weeks) was 391 mg/kg/day, the TD50 (mouse, strain B6C3F1, males, site: liver, lesion: hepatoblastoma, dosed 103 weeks) was 428 mg/kg/day and the TD50 (mouse, strain B6C3F1, males, site: liver, lesion: hepatocellular adenoma + hepatoblastoma + hepatocellular carcinoma, dosed 103 weeks) was 198 mg/kg/day. The TD50 (mouse, strain B6C3F1, males, site: liver, lesion: hepatocellular adenoma + hepatocellular carcinoma, dosed 103 weeks) was 208 mg/kg/day, the TD50 (mouse, strain B6C3F1, males, site: liver, lesion: hepatocellular adenoma, dosed 103 weeks) was 177 mg/kg/day and the TD50 (rat, strain Fischer 344, females, site: all sites, lesion: mononuclear-cell leukemia, dosed 103 weeks) was 152 mg/kg/day. For the same molecule, the TD50 (rat, strain Fischer 344, females, site: any site (literature study), lesion: several types, types named in the paper, dosed 27 weeks) was 10.7 mg/kg/day, the TD50 (rat, strain Fischer 344, females, site: any site (literature study), lesion: several types, types named in the paper, dosed 103 weeks) was 336 mg/kg/day and the TD50 (rat, strain Fischer 344, females, site: colon, lesion: adenomatous polyp, dosed 27 weeks) was 60.9 mg/kg/day. It also gave a TD50 (rat, strain Fischer 344, females, site: colon, lesion: carcinoma, dosed 27 weeks) of 1300 mg/kg/day, a TD50 (rat, strain Fischer 344, females, site: forestomach, lesion: squamous-cell carcinoma + squamous-cell papilloma, dosed 103 weeks) of 1270 mg/kg/day and a TD50 (rat, strain Fischer 344, females, site: forestomach, lesion: squamous-cell papilloma, dosed 103 weeks) of 3270 mg/kg/day. For the same molecule, the TD50 (rat, strain Fischer 344, females, site: kidney + large intestine + urinary bladder, lesion: transitional-cell carcinoma + transitional-cell papilloma + adenomatous polyp + carcinoma + sarcoma + squamous-cell carcinoma + squa, dosed 27 weeks) was 12.9 mg/kg/day, the TD50 (rat, strain Fischer 344, females, site: kidney, lesion: transitional-cell carcinoma + transitional-cell papilloma, dosed 27 weeks) was 1240 mg/kg/day and the TD50 (rat, strain Fischer 344, females, site: kidney, lesion: transitional-cell carcinoma, dosed 27 weeks) was 3550 mg/kg/day. It also gave a TD50 (rat, strain Fischer 344, females, site: kidney, lesion: transitional-cell papilloma, dosed 27 weeks) of 1890 mg/kg/day, a TD50 (rat, strain Fischer 344, females, site: large intestine, lesion: adenomatous polyp + carcinoma, dosed 27 weeks) of 55 mg/kg/day and a TD50 (rat, strain Fischer 344, females, site: large intestine, lesion: adenomatous polyp, dosed 27 weeks) of 55 mg/kg/day. For the same molecule, the TD50 (rat, strain Fischer 344, females, site: large intestine, lesion: carcinoma, dosed 27 weeks) was 1300 mg/kg/day, the TD50 (rat, strain Fischer 344, females, site: liver, lesion: hepatocellular adenoma + hepatoblastoma + hepatocellular carcinoma, dosed 103 weeks) was 1010 mg/kg/day and the TD50 (rat, strain Fischer 344, females, site: liver, lesion: hepatocellular adenoma, dosed 103 weeks) was 1010 mg/kg/day. The TD50 (rat, strain Fischer 344, females, site: lung, lesion: alveolar/bronchiolar adenoma, dosed 103 weeks) was 666 mg/kg/day, the TD50 (rat, strain Fischer 344, females, site: rectum, lesion: adenomatous polyp, dosed 27 weeks) was 560 mg/kg/day and the TD50 (rat, strain Fischer 344, females, site: urinary bladder, lesion: sarcoma, dosed 27 weeks) was 192 mg/kg/day. It also gave a TD50 (rat, strain Fischer 344, females, site: urinary bladder, lesion: squamous-cell carcinoma + squamous-cell papilloma, dosed 27 weeks) of 588 mg/kg/day, a TD50 (rat, strain Fischer 344, females, site: urinary bladder, lesion: squamous-cell carcinoma, dosed 27 weeks) of 2700 mg/kg/day and a TD50 (rat, strain Fischer 344, females, site: urinary bladder, lesion: squamous-cell papilloma, dosed 27 weeks) of 751 mg/kg/day. It also gave a TD50 (rat, strain Fischer 344, females, site: urinary bladder, lesion: transitional-cell carcinoma + transitional-cell papilloma, dosed 27 weeks) of 13 mg/kg/day, a TD50 (rat, strain Fischer 344, females, site: urinary bladder, lesion: transitional-cell carcinoma, dosed 27 weeks) of 13.2 mg/kg/day and a TD50 (rat, strain Fischer 344, females, site: urinary bladder, lesion: transitional-cell papilloma, dosed 27 weeks) of 543 mg/kg/day. It also gave a TD50 (rat, strain Fischer 344, males, site: adrenal medulla, lesion: pheochromocytoma benign, bilateral + pheochromocytoma, benign, dosed 103 weeks) of 89.6 mg/kg/day, a TD50 (rat, strain Fischer 344, males, site: adrenal medulla, lesion: pheochromocytoma benign, bilateral + pheochromocytoma, malignant + pheochromocytoma, benign, dosed 103 weeks) of 109 mg/kg/day and a TD50 (rat, strain Fischer 344, males, site: all sites, lesion: mononuclear-cell leukemia, dosed 103 weeks) of 25.9 mg/kg/day. The TD50 (rat, strain Fischer 344, males, site: any site (literature study), lesion: several types, types named in the paper, dosed 27 weeks) was 3.97 mg/kg/day, the TD50 (rat, strain Fischer 344, males, site: any site (literature study), lesion: several types, types named in the paper, dosed 103 weeks) was 21.4 mg/kg/day and the TD50 (rat, strain Fischer 344, males, site: cecum, lesion: adenomatous polyp, dosed 27 weeks) was 21.3 mg/kg/day. The TD50 (rat, strain Fischer 344, males, site: colon, lesion: adenomatous polyp, dosed 27 weeks) was 17.2 mg/kg/day, the TD50 (rat, strain Fischer 344, males, site: colon, lesion: carcinoma, dosed 27 weeks) was 573 mg/kg/day and the TD50 (rat, strain Fischer 344, males, site: forestomach, lesion: squamous-cell carcinoma + squamous-cell papilloma, dosed 103 weeks) was 304 mg/kg/day. The TD50 (rat, strain Fischer 344, males, site: forestomach, lesion: squamous-cell carcinoma, dosed 103 weeks) was 715 mg/kg/day, the TD50 (rat, strain Fischer 344, males, site: forestomach, lesion: squamous-cell papilloma, dosed 103 weeks) was 543 mg/kg/day and the TD50 (rat, strain Fischer 344, males, site: kidney + large intestine + urinary bladder, lesion: transitional-cell carcinoma + transitional-cell papilloma + adenomatous polyp + carcinoma + sarcoma + squamous-cell carcinoma + squa, dosed 27 weeks) was 7.47 mg/kg/day. The TD50 (rat, strain Fischer 344, males, site: kidney, lesion: transitional-cell carcinoma + transitional-cell papilloma, dosed 27 weeks) was 83.6 mg/kg/day, the TD50 (rat, strain Fischer 344, males, site: kidney, lesion: transitional-cell carcinoma, dosed 27 weeks) was 90.9 mg/kg/day and the TD50 (rat, strain Fischer 344, males, site: kidney, lesion: transitional-cell papilloma, dosed 27 weeks) was 1040 mg/kg/day. The TD50 (rat, strain Fischer 344, males, site: kidney, lesion: tubule adenoma + tubule carcinoma, dosed 103 weeks) was 251 mg/kg/day, the TD50 (rat, strain Fischer 344, males, site: kidney, lesion: tubule adenoma, dosed 103 weeks) was 435 mg/kg/day and the TD50 (rat, strain Fischer 344, males, site: kidney, lesion: tubule carcinoma, dosed 103 weeks) was 612 mg/kg/day. It also gave a TD50 (rat, strain Fischer 344, males, site: large intestine, lesion: adenomatous polyp + carcinoma, dosed 27 weeks) of 8.54 mg/kg/day, a TD50 (rat, strain Fischer 344, males, site: large intestine, lesion: adenomatous polyp, dosed 27 weeks) of 8.58 mg/kg/day and a TD50 (rat, strain Fischer 344, males, site: large intestine, lesion: carcinoma, dosed 27 weeks) of 573 mg/kg/day. The TD50 (rat, strain Fischer 344, males, site: liver, lesion: hepatocellular adenoma + hepatoblastoma + hepatocellular carcinoma, dosed 103 weeks) was 330 mg/kg/day, the TD50 (rat, strain Fischer 344, males, site: preputial gland, lesion: carcinoma + carcinoma, bilateral, dosed 103 weeks) was 195 mg/kg/day and the TD50 (rat, strain Fischer 344, males, site: rectum, lesion: adenomatous polyp, dosed 27 weeks) was 51.8 mg/kg/day. For the same molecule, the TD50 (rat, strain Fischer 344, males, site: testis, lesion: interstitial-cell adenoma, bilateral + interstitial-cell adenoma, dosed 103 weeks) was 21.3 mg/kg/day, the TD50 (rat, strain Fischer 344, males, site: urinary bladder, lesion: sarcoma, dosed 27 weeks) was 292 mg/kg/day and the TD50 (rat, strain Fischer 344, males, site: urinary bladder, lesion: squamous-cell carcinoma + squamous-cell papilloma, dosed 27 weeks) was 273 mg/kg/day. For the same molecule, the TD50 (rat, strain Fischer 344, males, site: urinary bladder, lesion: squamous-cell carcinoma, dosed 27 weeks) was 422 mg/kg/day, the TD50 (rat, strain Fischer 344, males, site: urinary bladder, lesion: squamous-cell papilloma, dosed 27 weeks) was 482 mg/kg/day and the TD50 (rat, strain Fischer 344, males, site: urinary bladder, lesion: transitional-cell carcinoma + transitional-cell papilloma, dosed 27 weeks) was 7.48 mg/kg/day. For the same molecule, the TD50 (rat, strain Fischer 344, males, site: urinary bladder, lesion: transitional-cell carcinoma, dosed 27 weeks) was 8.28 mg/kg/day and the TD50 (rat, strain Fischer 344, males, site: urinary bladder, lesion: transitional-cell papilloma, dosed 27 weeks) was 75.6 mg/kg/day.
